In PubChem BioAssay AID192 (DTP/NCI, 2004):
Several values for one entry are separate records, joined by “and”; a condition that tells them apart may be missing. Equal entries are not always repeated. Inconclusive results and toxic doses are left out. How the source made its calls: active means survival T/C of 150% or more; inactive means T/C below 125% in these data.

Tested on: BDF1 mice, B16 melanoma ip, median survival T/C
Assay: NCI In Vivo Anticancer Drug Screen. Data for tumor model B16 Melanoma (intraperitoneal) in B6D2F1 (BDF1) mice
Conditions: endpoint: median survival time, higher = longer survival
Summary of the method: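 Values are ratios of treated (T) to vehicle-control (C) measurements of survival or tumor size in tumor-bearing mice.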

[1] = dose: 12.5 mg/kg/injection, schedule: Q01DX009 (ip), vehicle: saline with Tween-80
[2] = dose: 50.0 mg/kg/injection, schedule: Q01DX009 (ip), vehicle: saline
[3] = dose: 100.0 mg/kg/injection, schedule: Q01DX009 (ip), vehicle: saline
[4] = dose: 200.0 mg/kg/injection, schedule: Q01DX009 (ip), vehicle: saline
[5] = dose: 400.0 mg/kg/injection, schedule: Q01DX009 (ip), vehicle: saline
[6] = dose: 50.0 mg/kg/injection, schedule: Q01DX009 (ip), vehicle: saline with Tween-80
[7] = dose: 200.0 mg/kg/injection, schedule: Q01DX009 (ip), vehicle: saline with Tween-80
[8] = dose: 25.0 mg/kg/injection, schedule: Q01DX009 (ip), vehicle: Klucel (hydroxypropylcellulose) (HPC)
[9] = dose: 50.0 mg/kg/injection, schedule: Q01DX009 (ip), vehicle: Klucel (hydroxypropylcellulose) (HPC)
[10] = dose: 100.0 mg/kg/injection, schedule: Q01DX009 (ip), vehicle: Klucel (hydroxypropylcellulose) (HPC)
[11] = dose: 200.0 mg/kg/injection, schedule: Q01DX009 (ip), vehicle: Klucel (hydroxypropylcellulose) (HPC)
[12] = dose: 400.0 mg/kg/injection, schedule: Q01DX009 (ip), vehicle: Klucel (hydroxypropylcellulose) (HPC)
[13] = dose: 25.0 mg/kg/injection, schedule: Q01DX009 (ip), vehicle: saline
[14] = dose: 12.5 mg/kg/injection, schedule: Q01DX009 (ip), vehicle: saline
[15] = dose: 12.5 mg/kg/injection, schedule: Q01DX009 (ip), vehicle: Klucel (hydroxypropylcellulose) (HPC)

Measured: T/C

CC(C)(C)CC(C)(C)c1ccc(O)c(O)c1
inactive: dose: 6.25 mg/kg/injection, schedule: Q01DX009 (ip), vehicle: saline with Tween-80 98 % of control | [1] 90 % of control | dose: 25.0 mg/kg/injection, schedule: Q01DX009 (ip), vehicle: saline with Tween-80 88 % of control and 93 % of control

O=C(Nc1nccs1)C(F)(F)F
inactive: [2] 98 % of control | [3] 106 % of control | [4] 103 % of control | [5] 97 % of control

Cc1cc(O)c(C(C)C)cc1S(=O)(=O)O (tested in a mixture with another compound)
inactive: [6] 98 % of control | [7] 100 % of control

COC1NC(=O)NC(=O)C1=[N+]=[N-] (stereo unspecified)
inactive: dose: 2.0 mg/kg/injection, schedule: Q01DX009 (ip), vehicle: water 112 % of control

CCN(CC)CCCC#CCN1CCCC1
inactive: [8] 100 % of control | [9] 93 % of control | [10] 93 % of control

CCOC(=O)c1cc(-c2ccc(Cl)cc2)nc2c(Cl)cc(Cl)cc12
inactive: dose: 100.0 mg/kg/injection, schedule: Q01DX009 (ip), vehicle: saline with Tween-80 101 % of control | [7] 89 % of control | dose: 400.0 mg/kg/injection, schedule: Q01DX009 (ip), vehicle: saline with Tween-80 88 % of control

N=Cc1c(O)[nH]c(=O)[nH]c1=O
inactive: dose: 150.0 mg/kg/injection, schedule: Q01DX009 (ip), vehicle: Klucel (hydroxypropylcellulose) (HPC) 87 % of control | dose: 300.0 mg/kg/injection, schedule: Q01DX009 (ip), vehicle: Klucel (hydroxypropylcellulose) (HPC) 95 % of control

O=C(Nc1ccccc1)Oc1ccc(Cl)cc1
inactive: [10] 93 % of control | [11] 94 % of control | [12] 99 % of control

Cc1ccc(NC(=O)Nc2ccccc2C)c(C)c1
inactive: [9] 115 % of control | [10] 115 % of control | [11] 118 % of control

C1#CCCCCCC#CCCCC1
inactive: [1] 89 % of control | dose: 12.5 mg/kg/injection, schedule: Q04DX003 (ip), vehicle: saline with Tween-80 91 % of control | dose: 25.0 mg/kg/injection, schedule: Q04DX003 (ip), vehicle: saline with Tween-80 97 % of control | [6] 100 % of control | dose: 50.0 mg/kg/injection, schedule: Q04DX003 (ip), vehicle: saline with Tween-80 89 % of control and 94 % of control

CC(=O)OC(C)C(=O)C(Cl)(Cl)Cl (stereo unspecified)
inactive: [10] 96 % of control | [11] 107 % of control | [12] 107 % of control

Oc1cc2c(cc1O)[C@H]1c3ccc(O)c(O)c3OC[C@@]1(O)C2
inactive: [13] 100 % of control | [2] 102 % of control | [3] 103 % of control | [4] 108 % of control | [5] 103 % of control

C=CCN(CC=C)c1ccc(N(CC)CC)cc1
inactive: dose: 25.0 mg/kg/injection, schedule: Q04DX003 (ip), vehicle: Klucel (hydroxypropylcellulose) (HPC) 99 % of control | dose: 50.0 mg/kg/injection, schedule: Q04DX003 (ip), vehicle: Klucel (hydroxypropylcellulose) (HPC) 102 % of control | dose: 100.0 mg/kg/injection, schedule: Q04DX003 (ip), vehicle: Klucel (hydroxypropylcellulose) (HPC) 88 % of control and 89 % of control

OCCCN1CCCCC1CO (stereo unspecified)
inactive: [14] 101 % of control | [13] 99 % of control | [2] 103 % of control | [3] 90 % of control | [4] 116 % of control | [5] 115 % of control

S=C(S)Nc1cccc2ccccc12
inactive: [15] 96 % of control | [8] 93 % of control | [9] 103 % of control

CC(C)NNC(C)Cc1ccccc1 (stereo unspecified)
inactive: dose: 1.56 mg/kg/injection, schedule: Q01DX009 (ip), vehicle: Klucel (hydroxypropylcellulose) (HPC) 91 % of control | dose: 3.12 mg/kg/injection, schedule: Q01DX009 (ip), vehicle: Klucel (hydroxypropylcellulose) (HPC) 86 % of control | dose: 6.25 mg/kg/injection, schedule: Q01DX009 (ip), vehicle: Klucel (hydroxypropylcellulose) (HPC) 86 % of control | [15] 91 % of control | [8] 97 % of control

CCOC(=O)C(=Cc1ccc(C=C(C(=O)OCC)C(=O)OCC)cc1)C(=O)OCC
inactive: [9] 93 % of control | [11] 93 % of control

COc1cc(CN(C)C2CCCCC2)cc(OC)c1OC
inactive: dose: 3.12 mg/kg/injection, schedule: Q01DX009 (ip), vehicle: saline 105 % of control | dose: 6.25 mg/kg/injection, schedule: Q01DX009 (ip), vehicle: saline 102 % of control | [14] 95 % of control | [13] 91 % of control | [2] 101 % of control
